biological target: T1, ER (Homo sapiens, UniProt P03372); assay: ER degradation activity, in-cell western blot analysis in T47D cells; assay type: cell-based; details: 16 hours, Table A does not say which cell line (T47D or MCF7), read-out: Potency (DC50)
T1 construct: host or cells: T47D and MCF7 human breast cancer cells
T1 sequence (P03372 1-595): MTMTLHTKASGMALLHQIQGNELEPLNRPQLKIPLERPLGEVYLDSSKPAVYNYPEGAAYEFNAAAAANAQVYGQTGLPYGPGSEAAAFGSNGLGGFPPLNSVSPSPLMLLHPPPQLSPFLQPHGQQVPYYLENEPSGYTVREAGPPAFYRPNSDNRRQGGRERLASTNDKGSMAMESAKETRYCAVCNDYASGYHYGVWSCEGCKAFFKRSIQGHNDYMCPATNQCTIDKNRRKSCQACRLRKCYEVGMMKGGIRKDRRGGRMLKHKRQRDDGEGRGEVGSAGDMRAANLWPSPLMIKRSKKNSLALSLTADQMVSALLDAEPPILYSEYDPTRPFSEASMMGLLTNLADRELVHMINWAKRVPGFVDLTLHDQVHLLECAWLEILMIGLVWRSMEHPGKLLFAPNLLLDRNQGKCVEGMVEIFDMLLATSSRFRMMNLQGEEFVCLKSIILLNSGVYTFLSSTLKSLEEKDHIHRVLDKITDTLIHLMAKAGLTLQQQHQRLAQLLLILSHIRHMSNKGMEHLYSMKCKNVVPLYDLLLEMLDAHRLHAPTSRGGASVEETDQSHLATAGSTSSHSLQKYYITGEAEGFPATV
Experimental: ER degradation activity was evaluated in the human breast cancer cell line T47D and MCF7 purchased from the American Type Culture Collection (ATCC), Manassas, VA, and maintained and cultured in Dulbecco's Modified Eagle's medium (DMEM) containing 10% fetal bovine serum, 1 unit/ml of penicillin and 1 μg/ml of streptomycin.
The protocol for the in-cell western blot analysis: a. seed cells in black-sided/clear bottom 96- or 384-well plates at 40,000 or 10,000 cells/well, overnight; b. add diluted compounds (final 0.5% DMSO), 16 hours. […] RT 2 h, gentle shaking. Negative control: cells plus secondary antibodies (no primary antibodies); e. wash ×4 with PBS+0.05-0.1% Tween 20, gentel shaking; f. anti-rabbit-680 and anti-mouse-800 (both 1:1000 in LiCor block+0.05% Tween20, RT 1 h, gentle shaking, no light. LI-COR: 0.2% to reduce background; g. wash×4 with PBS+0.05% Tween 20, gental shaking; h. add 100 μL or 25 μL of PBS to each well and read on CLX plate reader. The relative ER percentage in treated cells were obtained by comparing the values of treated wells to those in untreated and DMSO-treated wells as 100%.

Row | SMILES | DC50 [nM]
1 | C[C@@H]1Cc2c([nH]c3ccccc23)[C@@H](c2c(F)cc(N3CC4(CCCN(CC(=O)N5Cc6cc7c(cc6C5)C(=O)N(C5CCC(=O)NC5=O)C7)C4)C3)cc2F)N1CC(F)F (stereo partly drawn) [E 106, 3-(6-(2-(2-(4-((1R,3R)-2-(2,2-difluoroethyl)-3-methyl-2,3,4,9-tetrahydro-1H-pyrido[3,4-b]indol-1-yl)-3,5-difluorophenyl)-2,6-diazaspiro[3.5]nonan-6-yl)acetyl)-1-oxo-3,5,6,7-tetrahydropyrrolo[3,4-f]isoindol-2(1H)-yl)piperidine-2,6-dione] | 10 to 100
2 | C[C@@H]1Cc2c([nH]c3ccccc23)[C@@H](c2c(F)cc(N3CCC(N4CCC(CN5Cc6cc7c(cc6C5)C(=O)N(C5CCC(=O)NC5=O)C7=O)CC4)CC3)cc2F)N1CC(F)F (stereo partly drawn) [E 118, 6-((1′-(4-((1R,3R)-2-(2,2-difluoroethyl)-3-methyl-2,3,4,9-tetrahydro-1H-pyrido[3,4-b]indol-1-yl)-3,5-difluorophenyl)-[1,4′-bipiperidin]-4-yl)methyl)-2-(2,6-dioxopiperidin-3-yl)-6,7-dihydropyrrolo[3,4-f]isoindole-1,3(2H,5H)-dione] | > 100
3 | C[C@@H]1Cc2c([nH]c3ccccc23)[C@@H](c2ccc(C3CCC(C(=O)N4CCC(N5Cc6cc7c(cc6C5)C(=O)N(C5CCC(=O)NC5=O)C7=O)CC4)CC3)nc2)N1CC(F)F (stereo partly drawn) [E 319, 6-(1-(4-(5-((1R,3R)-2-(2,2-difluoroethyl)-3-methyl-2,3,4,9-tetrahydro-1H-pyrido[3,4-b]indol-1-yl)pyridin-2-yl)cyclohexane-1-carbonyl)piperidin-4-yl)-2-(2,6-dioxopiperidin-3-yl)-6,7-dihydropyrrolo[3,4-f]isoindole-1,3(2H,5H)-dione] | > 100
4 | O=C1CCC(N2C(=O)c3cc4c(cc3C2=O)CN(C(=O)CN2CCC3(CC2)CCN(c2ccc(C(=C(CCCl)c5ccccc5)c5ccc(O)cc5)cc2)C3)C4)C(=O)N1 (stereo not shown) [E 191, 6-(2-(2-(4-(4-chloro-1-(4-hydroxyphenyl)-2-phenylbut-1-en-1-yl)phenyl)-2,8-diazaspiro[4.5]decan-8-yl)acetyl)-2-(2,6-dioxopiperidin-3-yl)-6,7-dihydropyrrolo[3,4-f]isoindole-1,3(2H,5H)-dione] | 10 to 100
5 | C[C@@H]1Cc2c([nH]c3ccccc23)[C@@H](c2c(F)cc(N3CCC4(CC3)CN(C(=O)CN3Cc5cc6c(cc5C3)C(=O)N(C3CCC(=O)NC3=O)C6=O)C4)cc2F)N1CC(F)F (stereo partly drawn) [E 111, 6-(2-(7-(4-((1R,3R)-2-(2,2-difluoroethyl)-3-methyl-2,3,4,9-tetrahydro-1H-pyrido[3,4-b]indol-1-yl)-3,5-difluorophenyl)-2,7-diazaspiro[3.5]nonan-2-yl)-2-oxoethyl)-2-(2,6-dioxopiperidin-3-yl)-6,7-dihydropyrrolo[3,4-f]isoindole-1,3(2H,5H)-dione] | < 10
6 | C[C@@H]1Cc2cc(O)ccc2[C@@H](c2c(F)cc(N3CCC4(CCN(C(=O)CN5Cc6cc7c(cc6C5)C(=O)N(C5CCC(=O)NC5=O)C7=O)CC4)CC3)cc2F)N1CC(F)F (stereo partly drawn) [E 320, 6-(2-(9-(4-((1S,3R)-2-(2,2-difluoroethyl)-6-hydroxy-3-methyl-1,2,3,4-tetrahydroisoquinolin-1-yl)-3,5-difluorophenyl)-3,9-diazaspiro[5.5]undecan-3-yl)-2-oxoethyl)-2-(2,6-dioxopiperidin-3-yl)-6,7-dihydropyrrolo[3,4-f]isoindole-1,3(2H,5H)-dione] | < 10
7 | O=C1CCC(N2C(=O)c3cc4c(cc3C2=O)CN(CC(=O)N2CC3(CCN(c5ccc([C@@H]6c7ccc(O)cc7CC[C@@H]6c6ccccc6)cc5)CC3)C2)CCC4)C(=O)N1 (stereo partly drawn) [E 171, 2-(2,6-dioxopiperidin-3-yl)-6-(2-(7-(4-((1R,2S)-6-hydroxy-2-phenyl-1,2,3,4-tetrahydronaphthalen-1-yl)phenyl)-2,7-diazaspiro[3.5]nonan-2-yl)-2-oxoethyl)-6,7,8,9-tetrahydroazepino[3,4-f]isoindole-1,3(2H,5H)-dione] | > 100

The next lines start with the values.

Row | DC50 [nM] | SMILES
8 | > 100 | C[C@@H]1Cc2c([nH]c3ccccc23)[C@@H](c2c(F)cc(N3CCC(N4CC(CC(=O)N5Cc6cc7c(cc6C5)C(=O)N(C5CCC(=O)NC5=O)C7=O)C4)CC3)cc2F)N1CC(F)F (stereo partly drawn) [E 55, 6-(2-(1-(1-(4-((1R,3R)-2-(2,2-difluoroethyl)-3-methyl-2,3,4,9-tetrahydro-1H-pyrido[3,4-b]indol-1-yl)-3,5-difluorophenyl)piperidin-4-yl)azetidin-3-yl)acetyl)-2-(2,6-dioxopiperidin-3-yl)-6,7-dihydropyrrolo[3,4-f]isoindole-1,3(2H,5H)-dione]
9 | 10 to 100 | CCC(=C(c1ccc(O)cc1)c1ccc(N2CCC3(CCN(C(=O)CN4Cc5cc6c(cc5C4)C(=O)N(C4CCC(=O)NC4=O)C6=O)CC3)C2)cc1)c1ccccc1 (stereo not shown) [E 189, 2-(2,6-dioxopiperidin-3-yl)-6-(2-(2-(4-(1-(4-hydroxyphenyl)-2-phenylbut-1-en-1-yl)phenyl)-2,8-diazaspiro[4.5]decan-8-yl)-2-oxoethyl)-6,7-dihydropyrrolo[3,4-f]isoindole-1,3(2H,5H)-dione]
10 | > 100 | O=C1CCC(N2C(=O)c3cc4c(cc3C2=O)CN(C(=O)C2CCC(CN3CCN(c5ccc([C@@H]6c7ccc(O)cc7CC[C@@H]6c6ccccc6)cc5)CC3)CC2)C4)C(=O)N1 (stereo partly drawn) [E 365, 2-(2,6-dioxopiperidin-3-yl)-6-(4-((4-(4-((1R,2S)-6-hydroxy-2-phenyl-1,2,3,4-tetrahydronaphthalen-1-yl)phenyl)piperazin-1-yl)methyl)cyclohexane-1-carbonyl)-6,7-dihydropyrrolo[3,4-f]isoindole-1,3(2H,5H)-dione]

same assay, conditions: compounds 16 hours, Table A does not say whether T47D or MCF7, read-out: Potency (DC50)

Row | DC50 [nM] | SMILES
11 | > 100 | C[C@@H]1Cc2c([nH]c3ccccc23)[C@@H](c2ncc(C3CCC(C(=O)N4CCC(N5Cc6cc7c(cc6C5)C(=O)N(C5CCC(=O)NC5=O)C7=O)CC4)CC3)cc2F)N1CC(F)F (stereo partly drawn) [E 406, 6-(1-(4-(6-((1S,3R)-2-(2,2-difluoroethyl)-3-methyl-2,3,4,9-tetrahydro-1H-pyrido[3,4-b]indol-1-yl)-5-fluoropyridin-3-yl)cyclohexane-1-carbonyl)piperidin-4-yl)-2-(2,6-dioxopiperidin-3-yl)-6,7-dihydropyrrolo[3,4-f]isoindole-1,3(2H,5H)-dione]
12 | 10 to 100 | C[C@@H]1Cc2cc(O)ccc2[C@@H](c2c(F)cc(N(C)C3CC4(CCN(C(=O)CN5Cc6cc7c(cc6C5)C(=O)N(C5CCC(=O)NC5=O)C7=O)CC4)C3)cc2F)N1CC(F)F (stereo partly drawn) [E 452, 6-(2-(2-((4-((1S,3R)-2-(2,2-difluoroethyl)-6-hydroxy-3-methyl-1,2,3,4-tetrahydroisoquinolin-1-yl)-3,5-difluorophenyl)(methyl)amino)-7-azaspiro[3.5]nonan-7-yl)-2-oxoethyl)-2-(2,6-dioxopiperidin-3-yl)-6,7-dihydropyrrolo[3,4-f]isoindole-1,3(2H,5H)-dione]
13 | > 100 | O=C1CCC(N2C(=O)c3cc4c(cc3C2=O)CC2(C4)CN(CC3CCN(c4ccc([C@@H]5c6ccc(O)cc6CC[C@@H]5c5ccccc5)cc4)CC3)C2)C(=O)N1 (stereo partly drawn) [E 500, 2′-(2,6-dioxopiperidin-3-yl)-1-((1-(4-((1R,2S)-6-hydroxy-2-phenyl-1,2,3,4-tetrahydronaphthalen-1-yl)phenyl)piperidin-4-yl)methyl)-5′,7′-dihydro-1′H-spiro[azetidine-3,6′-cyclopenta[f]isoindole]-1′,3′(2′H)-dione]
